Data from patent publication US11384113B2, “Cobalamin derivatives and their use for the treatment of diseases caused by lack of vitamin B12 supply” (Albert-Ludwigs-Universitaet Freiburg, priority 2017, dated 2022).
Residue numbers refer to the chain shown, from its start. Like-named read-outs stand apart in the source and are kept apart here.

Columns and labels:
[1] = cited from earlier work
[2] = base-on to base-off equilibrium; cited from earlier work
[3] = molecular target: T1, human recombinant CblC pathogenic mutant Arg161Gly (Homo sapiens, UniProt Q9Y4U1, R161G); format: biochemical; settings: for Product under ambient conditions, Mutant Arg161Gly: dealkylation, 5 mM GSH; for Half-life of beta-axial ligand removal, Mutant Arg161Gly: human, pH 7.6
T1 sequence (Q9Y4U1 1-282 R161G): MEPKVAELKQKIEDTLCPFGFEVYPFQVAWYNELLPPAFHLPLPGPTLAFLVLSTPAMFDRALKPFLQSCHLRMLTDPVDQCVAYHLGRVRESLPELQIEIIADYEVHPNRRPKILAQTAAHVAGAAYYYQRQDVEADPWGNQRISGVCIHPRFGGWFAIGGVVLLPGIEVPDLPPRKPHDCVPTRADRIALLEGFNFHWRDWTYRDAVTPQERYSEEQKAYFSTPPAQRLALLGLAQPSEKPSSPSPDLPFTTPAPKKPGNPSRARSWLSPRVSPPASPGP
Protocol: (§1) The ability of the newly synthesized Cbl derivatives to serve as substrates for CblC was examined (FIG. 12). CblC activity was measured by UV-visible spectroscopy according to published procedures. Analysis of reaction products was performed by mass spectrometry. We measured dealkylation and de-thiolation of Co—C and Co—S bonded Cbl derivatives, respectively, by wild type and mutant CblC proteins to determine whether these reactions could be supported in patients harboring an abnormal isoform of CblC with low or no enzymatic activity.
(§2) First, the ability of novel cobalamins described herein was tested to act as substrate for wild type CblC and to restore the lost activity of pathogenic variants, such as mutant Arg161Gly, that leads to early-onset form of the cblC disease.

[4] = molecular target: T2, human recombinant CblC wild type (Homo sapiens, UniProt Q9Y4U1); format: biochemical; settings: for Product under ambient conditions, Wild type CblC: dealkylation, 5 mM GSH; for Half-life of beta-axial ligand removal, Wild type CblC: human, pH 7.6
T2 sequence (Q9Y4U1 1-282): T1 sequence (Q9Y4U1 1-282 R161G) with G161R
Protocol: as §1
The enzymatic activity of CblC in the presence of CyaCbl and MPGCbl as substrates was evaluated under the same experimental conditions utilized to examine dealkylation of MeCbl and AdoCbl. […] The reaction was complete in less than 10 seconds, which is the time it takes to record the first spectrum after mixing of CblC-bound to CyaCbl or MPGCbl with 5 mM GSH (FIG. 12).
as §2

[5] = tested on: fibroblasts from healthy subjects; assay: MMA in conditioned medium of control fibroblasts; format: cell-based, human
Source text: (§3) Cultured cells from control (healthy neonatal subjects) or cblC fibroblasts were supplemented without exogenous Cbl (negative control), with commercial CNCbl (current therapy control) or with the newly synthesized cobalamins (test group). The ability of these compounds to support intracellular Cbl metabolism in the absence of CblC was examined by monitoring disease biomarker metabolites Hcy and MMA levels in the conditioned medium.
(§4) The cellular response to treatment with new derivatives CyaCbl and MPGCbl in comparison with current therapeutic form CNCbl was measured. The ability of the new cobalamin derivatives CyaCbl and MPGCbl to achieve metabolic control, i.e. reduction of for example MMA production by cblC fibroblasts in culture, was examined as described in previously published experimental protocols. FIG. 13 provides a comparison of the effect of CNCbl (0.001 mM) versus the same dose of CyaCbl or MPGCbl given to cultured fibroblasts from healthy subjects (HFF, NHDF, PCS, Wiesel, Control) or from cblC patients (WG1801, WG2176, WG3354, GM10011, GM02345B, GM02452C).
(§5) Additional examination of the effect of thiolatocobalamins CyaCbl and MPGCbl and sulfur-containing alkylcobalamin Me-S-MeCbl with respect to structural analogues that are NOT available for therapy was also carried out, for comparative purposes. The results of cellular response (healthy controls and cblC patient fibroblasts) to cobalamin treatment, as reflected by MMA levels is provided in Table 6.

[6] = tested on: fibroblasts isolated from patients with cblC disease; assay: MMA in conditioned medium of cblC patient fibroblasts; format: cell-based, human
Source text: as §3, §4, §5

[7] = Controls (group value), after 7 days
[8] = Controls, after 7 days wash-off period without supplemental cobalamin
[9] = HFF control fibroblasts, after 7 days
[10] = NHDF control fibroblasts, after 7 days
[11] = Wiezel control fibroblasts, after 7 days
[12] = GM02345B cblC fibroblasts, after 7 days
[13] = GM02452C cblC fibroblasts, after 7 days
[14] = GM10011 cblC fibroblasts, after 7 days
[15] = WG1801 cblC fibroblasts, after 7 days
[16] = WG2176 cblC fibroblasts, after 7 days
[17] = WG3354 cblC fibroblasts, after 7 days
[18] = cblC patients (group value), after 7 days
[19] = cblC patients, after 7 days wash-off period without supplemental cobalamin

C/C1=C2/[N-][C@H]([C@H](CC(N)=O)[C@@]2(C)CCC(=O)NC[C@@H](C)OP(=O)([O-])O[C@H]2[C@@H](O)[C@@H](n3cnc4cc(C)c(C)cc43)O[C@@H]2CO)[C@]2(C)N=C(/C(C)=C3N=C(/C=C4N=C1[C@@H](CCC(N)=O)C\4(C)C)[C@@H](CCC(N)=O)[C@]\3(C)CC(N)=O)[C@@H](CCC(N)=O)[C@]2(C)CC(N)=O.[CH2-][C@H]1O[C@@H](n2cnc3c(N)ncnc32)[C@H](O)[C@@H]1O.[Co] [AdoCbl, Adenosylcobalamin]
Redox potential [V] relative to NHE ([1]; electrochemical, DMF/methanol): −1.04 V | pKa of base on/base off [2]: 3.50

CC1=C2N=C(C=C3N=C(C(C)=C4[N-]C(C(CC(N)=O)C4(C)CCC(=O)NCC(C)OP(=O)([O-])OC4C(CO)OC(n5cnc6cc(C)c(C)cc65)C4O)C4(C)N=C1C(CCC(N)=O)C4(C)CC(N)=O)C(CCC(N)=O)C3(C)C)C(CCC(N)=O)C2(C)CC(N)=O.CCC[CH2][Co+2] (centres unmarked) [BuCbl, butylcobalamin, reference compound]
Product under ambient conditions, Mutant Arg161Gly [3]: No reaction | Half-life of beta-axial ligand removal, Mutant Arg161Gly [3]: 0 min | Product under ambient conditions, Wild type CblC [4]: H2OCbl | Half-life of beta-axial ligand removal, Wild type CblC [4]: 1155 min

C/C1=C2/[N-][C@H]([C@H](CC(N)=O)[C@@]2(C)CCC(=O)NC[C@@H](C)OP(=O)([O-])O[C@H]2[C@@H](O)[C@@H](n3cnc4cc(C)c(C)cc43)O[C@@H]2CO)[C@]2(C)N=C(/C(C)=C3N=C(/C=C4N=C1[C@@H](CCC(N)=O)C\4(C)C)[C@@H](CCC(N)=O)[C@]\3(C)CC(N)=O)[C@@H](CCC(N)=O)[C@]2(C)CC(N)=O.[Co].[OH3+] [H2O, Aquacobalamin]
Redox potential [V] relative to NHE ([1]; 22° C.): 0.20 V | pKa of base on/base off [2]: −2.40

C/C1=C2/[N-][C@H]([C@H](CC(N)=O)[C@@]2(C)CCC(=O)NC[C@H](C)OP(=O)([O-])O[C@H]2[C@@H](O)[C@@H](n3cnc4cc(C)c(C)cc43)O[C@@H]2CO)[C@]2(C)N=C(/C(C)=C3N=C(/C=C4N=C1[C@@H](CCC(N)=O)C\4(C)C)[C@@H](CCC(N)=O)[C@]\3(C)CC(N)=O)[C@@H](CCC(N)=O)[C@]2(C)CC(N)=O.[CH3-].[Co+3] [MeCbl, Methylcobalamin, reference compound]
Product under ambient conditions, Mutant Arg161Gly [3]: Cob(II)alamin | Half-life of beta-axial ligand removal, Mutant Arg161Gly [3]: 60 min | Product under ambient conditions, Wild type CblC [4]: H2OCbl | Half-life of beta-axial ligand removal, Wild type CblC [4]: 10 min | Redox potential [V] relative to NHE ([1]; electrochemical, 20° C.): −1.20 V | MMA in conditioned medium [5, 7]: 0.118 μmol/mg protein | MMA in conditioned medium [5, 8]: 0.131 μmol/mg protein | MMA in conditioned medium [5, 9]: 0.106 μmol/mg protein | MMA in conditioned medium [5, 10]: 0.152 μmol/mg protein | MMA in conditioned medium [5, 11]: 0.095 μmol/mg protein | pKa of base on/base off [2]: 2.90 | MMA in conditioned medium [6, 12]: 0.250 μmol/mg protein | MMA in conditioned medium [6, 13]: 0.243 μmol/mg protein | MMA in conditioned medium [6, 14]: 0.066 μmol/mg protein | MMA in conditioned medium [6, 15]: 0.429 μmol/mg protein | MMA in conditioned medium [6, 16]: 0.459 μmol/mg protein | MMA in conditioned medium [6, 17]: 0.891 μmol/mg protein | MMA in conditioned medium [6, 18]: 0.390 μmol/mg protein | MMA in conditioned medium [6, 19]: 0.298 μmol/mg protein

CC1=C2N=C(C=C3N=C(C(C)=C4[N-]C(C(CC(N)=O)C4(C)CCC(=O)NCC(C)OP(=O)([O-])OC4C(CO)OC(n5cnc6cc(C)c(C)cc65)C4O)C4(C)N=C1C(CCC(N)=O)C4(C)CC(N)=O)C(CCC(N)=O)C3(C)C)C(CCC(N)=O)C2(C)CC(N)=O.CSC[CH2][Co+2] (centres unmarked) [Me—S—EtCbl]
Product under ambient conditions, Mutant Arg161Gly [3]: Cob(II)alamin | Half-life of beta-axial ligand removal, Mutant Arg161Gly [3]: 11.5 min | Product under ambient conditions, Wild type CblC [4]: H2OCbl/Cob(II)alamin | Half-life of beta-axial ligand removal, Wild type CblC [4]: 7.5 min

CC1=C2N=C(C=C3N=C(C(C)=C4[N-]C(C(CC(N)=O)C4(C)CCC(=O)NCC(C)OP(=O)([O-])OC4C(CO)OC(n5cnc6cc(C)c(C)cc65)C4O)C4(C)N=C1C(CCC(N)=O)C4(C)CC(N)=O)C(CCC(N)=O)C3(C)C)C(CCC(N)=O)C2(C)CC(N)=O.CS[CH2][Co+2] (centres unmarked) [Me—S—MeCbl]
Product under ambient conditions, Mutant Arg161Gly [3]: Cob(II)alamin | Half-life of beta-axial ligand removal, Mutant Arg161Gly [3]: 12 min | Product under ambient conditions, Wild type CblC [4]: H2OCbl/Cob(II)alamin | Half-life of beta-axial ligand removal, Wild type CblC [4]: 8.5 min | MMA in conditioned medium [5, 7]: 0.122 μmol/mg protein | MMA in conditioned medium [5, 8]: 0.145 μmol/mg protein | MMA in conditioned medium [5, 9]: 0.132 μmol/mg protein | MMA in conditioned medium [5, 10]: 0.103 μmol/mg protein | MMA in conditioned medium [5, 11]: 0.132 μmol/mg protein | MMA in conditioned medium [6, 12]: 0.150 μmol/mg protein | MMA in conditioned medium [6, 13]: 0.150 μmol/mg protein | MMA in conditioned medium [6, 14]: 0.041 μmol/mg protein | MMA in conditioned medium [6, 15]: 0.254 μmol/mg protein | MMA in conditioned medium [6, 16]: 0.083 μmol/mg protein | MMA in conditioned medium [6, 17]: 0.148 μmol/mg protein | MMA in conditioned medium [6, 18]: 0.138 μmol/mg protein | MMA in conditioned medium [6, 19]: 0.177 μmol/mg protein

CC1=C2N=C(C=C3N=C(C(C)=C4[N-]C(C(CC(N)=O)C4(C)CCC(=O)NCC(C)OP(=O)([O-])OC4C(CO)OC(n5cnc6cc(C)c(C)cc65)C4O)C4(C)N=C1C(CCC(N)=O)C4(C)CC(N)=O)C(CCC(N)=O)C3(C)C)C(CCC(N)=O)C2(C)CC(N)=O.O=[N+]([O-])[Co+2] (centres unmarked) [NO2]
pKa of base on/base off [2]: −0.15

CC1=C2N=C(C=C3N=C(C(C)=C4[N-]C(C(CC(N)=O)C4(C)CCC(=O)NCC(C)OP(=O)([O-])OC4C(CO)OC(n5cnc6cc(C)c(C)cc65)C4O)C4(C)N=C1C(CCC(N)=O)C4(C)CC(N)=O)C(CCC(N)=O)C3(C)C)C(CCC(N)=O)C2(C)CC(N)=O.CC[CH2][Co+2] (centres unmarked) [PrCbl, propylcobalamin, reference compound]
Product under ambient conditions, Mutant Arg161Gly [3]: No reaction | Half-life of beta-axial ligand removal, Mutant Arg161Gly [3]: 0 min | Product under ambient conditions, Wild type CblC [4]: H2OCbl | Half-life of beta-axial ligand removal, Wild type CblC [4]: 318 min

CC1=C2N=C(C=C3N=C(C(C)=C4[N-]C(C(CC(N)=O)C4(C)CCC(=O)NCC(C)OP(=O)([O-])OC4C(CO)OC(n5cnc6cc(C)c(C)cc65)C4O)C4(C)N=C1C(CCC(N)=O)C4(C)CC(N)=O)C(CCC(N)=O)C3(C)C)C(CCC(N)=O)C2(C)CC(N)=O.N#C[S][Co+2] (centres unmarked) [SCN^−]
pKa of base on/base off [2]: 3.40

cyanocobalamin [CNCbl]
Redox potential [V] relative to NHE ([1]; electrochemical, DMSO/propanol): −0.76 V | pKa of base on/base off [2]: 0.10
